Columns and labels:
[1] = tested on: breast cancer cells MDA-MB-231; experiment: Cell proliferation, MDA-MB-231; type: cell-based; conditions: 96 hours, Formula II only
Method: Growth of MDA-MB-231 cell lines were slowed by the treatment with a compound of Formula II. Experiment represents 6 biological repetitions, Error=S.E.M.
(§1) Prior to treatment cells were cultured to an appropriate confluency in 96 well tissue culture plates (Fisher). Cells remained either supplemented with fresh media or treated with fresh media containing active or an equivalent volume of DMSO (vehicle control). Where used, Cisplatin™ was diluted to a stock concentration in Dimethylformamide (DMF), then handled as per the manufacturer's instructions. To determine relative cell viability, reagents WST-1 (Roche) or MTT (Sigma) were used as per the manufacturer's instructions and absorbance at 450 nm measured using a Victor plate reader (Perkin Elmer).

white blood cells = experiment: White blood cells in the primary canine tissue sample; type: cell-based; conditions: seen under the microscope, 6 days
Text: Known inhibitors of protein synthesis such as hippuristanol have proven potent anti-cancer properties when used in combination with chemotherapeutic agents such as Cisplatin™ or Doxorubicin™. However hippuristanol is naturally found in coral to is scarce and expensive to obtain, furthermore it is very difficult and expensive to synthesise. […] In particular this combination has a potent effect at slowing proliferation or killing cancer cells. Slow growing and difficult to treat tumour cell types such as A549 lung cancer cells, SH-SY5Y neuroblastoma or SKOV-3 cancer cells are all sensitised by exposure to Formula II to very low doses of Cisplatin™ (FIGS. 4d, 4e, 4f and 7)—a complete kill can be achieved in both A549 and SH-SY5Y cells after a single dose treatment with g quantities of a compound of Formula II in combination with 1 μM or 2.5 μM treatments of Cisplatin™. A similar effect is observed when rapidly growing tumour cell lines or primary tumour cells (FIG. 8) are treated with a compound of Formula II and chemotherapeutics such as Cisplatin™. In this example primary tumour cells were isolated from a dog and then in vitro exposed to the compound of Formula II and Cisplatin™. […]

[2] = tested on: CrPV IRES-dependent translation; experiment: CrPV assay, IRES-dependent translation (Renilla luciferase); type: cell-based; conditions: 3 hours treatment
Text: FIG. 12—CrPV assay—Natural molecule targets eIF4A.
By using a well characterised luciferase based reporter assay it was further determined that this class of molecule functions as a protein synthesis inhibitor via targeting the helicase eIF4A.

[3] = tested on: amyloid precursor protein APP 5′UTR luciferase reporter; experiment: 5′UTR firefly luciferase reporter assay, APP; type: cell-based, human
Method: SH-SY5Y cells were simultaneously co-transfected with APP-5′UTR firefly luciferase construct and a Renilla control vector. Luciferase levels were assayed using a Glomax Luminometer and Stop-n-Glo luciferase reagents (standard procedure throughout). The data presented represents 8 biological repetitions and use as the active a semi refined compound of Formula II. Levels of compound were estimated based on amounts of purified compound obtained from fresh tomato tissue.
The 5′UTRs of genes which negatively associate with the progression of Alzheimer's disease—amyloid precursor protein (APP) and beta secretases (BACE) are all inhibited by treatment with a compound of Formula II, whereas the equivalent reporter levels of housekeeping genes actin and thioredoxin (TXN) are not inhibited. […] Neuroblastoma cells were transfected 24 hours prior to treatment with a compound of Formula II. After treatment, cells were prepared as described in the materials and methods. Each experiment represents between 6 and 8 biological repetitions. […]
Cells were transfected using FuGene 6 (Roche) following the manufacturer's instructions. The activities of firefly and renilla luciferase in lysates prepared from transfected cells were measured using a commercially available Luciferase reporter assay system (Promega) and light emission was measured over a 10 sec interval using a TECAN luminometer. […]

[4] = tested on: Neuroblastoma cells (SH-SY5Y); experiment: Polysome profiling (sucrose density); type: cell-based, human
Method: Established techniques such as polysome profiling were used to show a reduction in the number of polyribosomes in neuroblastoma cells after treatment with a compound of Formula II. Polysome peaks from left to right show increasing number of ribosomes associated with mRNA. This peaks at 3 ribosomes after treatment with a compound of Formula II showing rapid and reproducible perturbation of translation. Cells were treated for 20 minutes with a compound of Formula II then harvested and prepared as described in materials and methods. The supernatants were loaded onto 10-50% sucrose gradients and spun for 2 hrs at 38,000 RPM. Gradients were visualised using a UV detector.
The number of ribosomes is indicative of the translation of an mRNA and synthesis of the protein encoded by the mRNA, and treatment with the compound of Formula II decreases the number of ribosomes per message thereby reducing global protein synthesis.
Polysome profiles were obtained using sucrose density centrifugation. Briefly one 15 cm plate of cultured Neuroblastoma cells (SH-SY5Y) were grown per treatment to a confluency of 70%. Cells were then treated with either active or equivalent DMSO vehicle control for 20 min. […] Gradients were fractionated and polysome profiles determined through a continuous monitoring at absorbance 260 nm (described previously Johannes et al. 1999).

[5] = tested on: SKOV3 ovarian cancer cells; experiment: Cell proliferation, SKOV3; type: cell-based; conditions: 96 hours
Method: Growth of SKOV3 cell lines were slowed by the treatment with a compound of Formula II at higher doses. Experiment represents 6 biological repetitions, Error=S.E.M.
Cisplatin™ resistant SKOV-3 ovarian cancer cells were sensitised to treatment with a compound of Formula II in combination with 2.5 μM Cisplatin™ (p=0.003) (right hand bar in the figure), no effect is observed from treatment with equivalent levels of a compound of Formula II alone (left hand bar in the figure) or Cisplatin™ alone.
as §1

In the case of `CC/C=C\C/C=C\C/C=C\CCCCCCCC(=O)OC[C@H](COC1OC(CO)C(O)C(O)C1O)OC(=O)CCCCCCC/C=C\C/C=C\C/C=C\CC` (stereo partly drawn) [Formula II, 1,2-dioctadecatienyl-3-O-β-D-galactosyl-sn-glycerol], the “growth of MDA-MB-231 cells” value [1] is reported as “slowed”, the “white blood cells after Cisplatin and Formula II treatment” value (white blood cells) is reported as “still alive” and the “CrPV IRES-dependent translation (Renilla luciferase signal)” value [2] is reported as “but not CrPV IRES-dependent translation (Renilla luciferase signal), was inhibited”. The “firefly luciferase reporter activity, APP 5′UTR” value ([3]; Neuroblastoma cells transfected 24 hours prior, FIG. 3d) was “inhibited”, the “APP 5′UTR luciferase reporter relative to Renilla luciferase reporter” value ([3]; SH-SY5Y cells, semi refined compound, FIG. 3a) was “selective inhibition” and the “polysome peak, number of ribosomes associated with mRNA” value ([4]; after treatment, 20 minutes) was 3 ribosomes. For the same compound, the amount of polyribosomes ([4]; cells treated for 20 minutes, 10-50% sucrose gradients) was “reduction in the amount of polyribosomes”, the “growth of SKOV3 cells” value ([5]; Formula II only, at higher doses) was “slowed” and the “effect on SKOV-3 cells, compound alone” value ([5]; equivalent levels of Formula II alone, FIG. 4f) was “no effect”. The “sensitisation of SKOV-3 cells to Cisplatin” value ([5]; in combination with 2.5 μM Cisplatin (p=0.003)) was “sensitised”.
